Experiments:
[1] = biological target: T1, human DNA topoisomerase I (Homo sapiens, UniProt P11387); experiment: oligonucleotide cleavage assay:[…] BA added before […] CPT; format: biochemical
T1 construct: gene TOP1
T1 sequence (P11387 2-765): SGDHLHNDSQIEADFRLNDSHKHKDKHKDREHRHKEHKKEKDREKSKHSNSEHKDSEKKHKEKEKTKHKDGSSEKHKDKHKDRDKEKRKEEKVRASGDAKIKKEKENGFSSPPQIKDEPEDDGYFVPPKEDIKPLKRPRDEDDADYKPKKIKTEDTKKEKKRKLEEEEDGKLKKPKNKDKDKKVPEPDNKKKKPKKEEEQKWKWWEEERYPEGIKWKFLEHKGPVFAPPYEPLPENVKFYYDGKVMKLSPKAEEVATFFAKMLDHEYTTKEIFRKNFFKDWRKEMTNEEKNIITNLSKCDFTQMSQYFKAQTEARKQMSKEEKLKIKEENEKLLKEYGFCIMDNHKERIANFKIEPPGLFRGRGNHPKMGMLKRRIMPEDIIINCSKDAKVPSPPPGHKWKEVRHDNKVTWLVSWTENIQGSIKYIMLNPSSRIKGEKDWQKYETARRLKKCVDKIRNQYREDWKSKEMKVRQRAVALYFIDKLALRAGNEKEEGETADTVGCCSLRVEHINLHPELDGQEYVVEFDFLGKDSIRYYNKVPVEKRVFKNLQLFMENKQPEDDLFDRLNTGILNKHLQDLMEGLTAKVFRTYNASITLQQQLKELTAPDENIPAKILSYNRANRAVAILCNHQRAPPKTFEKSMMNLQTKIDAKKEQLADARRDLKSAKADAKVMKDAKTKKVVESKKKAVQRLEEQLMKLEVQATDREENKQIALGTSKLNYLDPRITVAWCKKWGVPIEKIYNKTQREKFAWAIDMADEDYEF

[2] = biological target: T1, human DNA topoisomerase I; experiment: DNA relaxation assay with enzyme preincubation; also EMSA and cleavage assays; format: biochemical

IC100 [2]	Structure (SMILES)	oligonucleotide cleavage assay: 20 uM BA added before 20 uM CPT [1]
–	C=C(C)[C@@H]1CC[C@]2(C(=O)O)CC[C@]3(C)[C@H](CC[C@@H]4[C@@]5(C)CC[C@H](O)C(C)(C)[C@@H]5CC[C@]43C)[C@@H]12 [Betulinic acid]	SQDG/BA abrogates CPT mediated topo I-oligo covalent complex formation
1.5 µM	CCCCCCCCCCCCCCCC(=O)OC[C@H](CO[C@H]1O[C@H](CS(=O)(=O)O)[C@@H](O)[C@H](O)[C@H]1O)OC(=O)CCCCCCCCCCCCCCC [SQDG]	–
